Data set [1] concerns 4T1. Description: Antitumor activity against mouse 4T1 cells expressing luciferase gene implanted in BALB/c lung metastatic mouse model assessed as reduction in fluorescence at 10 mg/kg, ip administered twice a week for 20 days by luciferase reporter gene based bioluminescence assay. Type of data set: functional, organism-based. The settings on record: time 20.0 day. In general terms: A reporter such as luciferase makes a cellular process visible.

For data set [2], the system named is 4T1. The experiment in a line: Antitumor activity against mouse 4T1 cells xenografted in BALB/c mouse assessed as tumor growth inhibition at 100 mg/kg, po administered once a day for 36 days. Type of data set: functional. To be noted: 4T1, po, 864 h, time 36 day, read-out: TGI.
In data set [3] the test system is 4T1. Description: Antitumor activity against mouse 4T1 cells xenografted in BALB/c mouse assessed as decrease in lung metastasis at 100 mg/kg, po administered once a day for 36 days by H&E staining based assay. Type of data set: functional, organism-based. To be noted: time 36.0 day.
The test system of data set [4] is 4T1. Description: Antitumor activity against mouse 4T1 cells xenografted in BALB/c mouse assessed as decrease in liver metastasis at 100 mg/kg, po administered once a day for 36 days by H&E staining based assay. Type of data set: functional, organism-based. To be noted: time 36.0 day.
Data set [5] deals with 4T1. The experiment in a line: Antitumor activity against mouse 4T1 cells expressing luciferase gene implanted in BALB/c lung metastatic mouse model assessed as reduction in fluorescence at 100 mg/kg, po administered once a day for 20 days by luciferase reporter gene based bioluminescence assay. Type of data set: functional, organism-based. To be noted: time 20.0 day.
For data set [6], the system named is 4T1. Description: Antitumor activity against mouse 4T1 cells expressing luciferase gene implanted in BALB/c lung metastatic mouse model assessed as decrease in lung metastasis at 100 mg/kg, po administered once a day for 20 days by H&E staining based assay. The settings on record: time 20.0 day. Type of data set: functional, organism-based.
Data set [7] concerns 4T1. The experiment in a line: Antitumor activity against mouse 4T1 cells expressing luciferase gene implanted in BALB/c lung metastatic mouse model assessed as decrease in lung metastatic burden at 100 mg/kg, po administered once a day for 20 days by H&E staining based assay. To be noted: time 20.0 day. Type of data set: functional, organism-based.
Data set [8] relates to 4T1. The experiment in a line: Antimetastatic activity against mouse 4T1 cells expressing luciferase gene implanted in BALB/c lung metastatic mouse model assessed as down regulation of E-cadherin expression in liver tissue at 100 mg/kg, po administered once a day for 20 days. Type of data set: functional, organism-based. The settings on record: time 20.0 day.
Data set [9] deals with 4T1. The experiment in a line: Antimetastatic activity against mouse 4T1 cells expressing luciferase gene implanted in BALB/c lung metastatic mouse model assessed as down regulation of ANXA2 expression in liver tissue at 100 mg/kg, po administered once a day for 20 days. The settings on record: time 20.0 day. Type of data set: functional, organism-based.
Data set [10] can be described thus: Toxicity in BALB/c mouse xenografted with mouse 4T1 assessed as effect on body weight at 100 mg/kg, po administered once a day for 36 days. Type of data set: organism-based. To be noted: in vivo, 864 h, time 36 day.
The test system of data set [11] is MDA-MB-231. The experiment in a line: Antiproliferative activity against human MDA-MB-231 cells assessed as reduction in cell viability after 48 hrs by MTT assay. To be noted: MDA-MB-231, 48 h. Type of data set: functional, cell-based. Background: Tetrazolium dyes change colour on reduction, which living cells bring about.
In data set [12] the test system is 4T1. The experiment in a line: Antiproliferative activity against mouse 4T1 cells assessed as reduction in cell viability after 48 hrs by MTT assay. The settings on record: 4T1, 48 h. Type of data set: functional, cell-based.
For data set [13], the system named is MDA-MB-231. Description: Inhibition of colony formation in human MDA-MB-231 cells at 2.5 to 5 uM incubated for 7 days by crystal violet staining based assay. Type of data set: functional, cell-based. The settings on record: dose 2.5-5 µM, time 7.0 day.
Data set [14] concerns 4T1. Description: Inhibition of colony formation in mouse 4T1 cells at 2.5 to 5 uM incubated for 7 days by crystal violet staining based assay. Type of data set: functional, cell-based. To be noted: dose 2.5-5 µM, time 7.0 day.
In data set [15] the test system is MDA-MB-231. The experiment in a line: Inhibition of cell stemness in human MDA-MB-231 cells assessed as reduction in size of tumor spheres incubated in tumorsphere medium for 4 days followed by compound incubation for 96 hrs by microscopic analysis. Type of data set: functional, cell-based.
In data set [16] the test system is 4T1. The experiment in a line: Inhibition of cell stemness in mouse 4T1 cells assessed as reduction in size of tumor spheres incubated in tumorsphere medium for 4 days followed by compound incubation for 96 hrs by microscopic analysis. Type of data set: functional, cell-based.
For data set [17], the system named is MDA-MB-231. The experiment in a line: Inhibition of cell migration in human MDA-MB-231 cells at 2.5 to 5 uM incubated for 36 hrs by wound healing assay. Type of data set: functional, cell-based. The settings on record: dose 2.5-5 µM.
In data set [18] the test system is 4T1. The experiment in a line: Inhibition of cell migration in mouse 4T1 cells at 5 to 10 uM incubated for 24 hrs by wound healing assay. Type of data set: functional, cell-based. To be noted: dose 5-10 µM.
Data set [19] has as its system MDA-MB-231. The experiment in a line: Antitumor activity against human MDA-MB-231 cells assessed as reduction in cell invasion at 2.5 to 5 uM measured after 24 hrs by crystal violet staining based transwell assay. Type of data set: functional. To be noted: dose 2.5-5 µM.
In data set [20] the test system is 4T1. Description: Antitumor activity against mouse 4T1 cells assessed as reduction in cell invasion at 2.5 to 5 uM measured after 24 hrs by crystal violet staining based transwell assay. Type of data set: functional. The settings on record: dose 2.5-5 µM.
In data set [21] the test system is MDA-MB-231. The experiment in a line: Antimetastatic activity against human MDA-MB-231 cells assessed as accumulation of E-cadherin in cell cytoplasm at 5 to 10 uM measured after 48 hrs by Western blot analysis. Type of data set: functional, cell-based. To be noted: dose 5-10 µM.
In data set [22] the test system is MDA-MB-231. Description: Antimetastatic activity against human MDA-MB-231 cells assessed as decrease in E-cadherin expression in cell membrane at 5 to 10 uM measured after 48 hrs by Western blot analysis. Type of data set: functional, cell-based. The settings on record: dose 5-10 µM.
Data set [23] concerns the target T1, Annexin A2/S100-A10 (Homo sapiens) (UniProt P07355+P60903). The experiment in a line: Inhibition of human ANXA2/S100A10 interaction in MDA-MB-231 cells pretreated with compound for 48 hrs by immunoprecipitation based Western blot analysis. Type of data set: cell-based. (A western blot detects proteins with antibodies after separation by electrophoresis.)
In data set [24] the target is T1, Annexin A2/S100-A10 (Homo sapiens). Description: Inhibition of human ANXA2/S100A10 interaction in MDA-MB-231 cells at 5 to 10 uM measured after 48 hrs by immunocytochemistry assay. Type of data set: cell-based. The settings on record: dose 5-10 µM.
Data set [25] deals with MDA-MB-231. Description: Inhibition of cell stemness in human MDA-MB-231 cells assessed as reduction in tumor spheres count at 10 to 20 uM incubated in tumorsphere medium for 4 days followed by compound incubation for 96 hrs by microscopic analysis. Type of data set: functional, cell-based. To be noted: dose 10-20 µM.
Data set [26] has as its system 4T1. Description: Inhibition of cell stemness in mouse 4T1 cells assessed as reduction in tumor spheres count at 10 to 20 uM incubated in tumorsphere medium for 4 days followed by compound incubation for 96 hrs by microscopic analysis. Type of data set: functional, cell-based. To be noted: dose 10-20 µM.

Calls of active or inactive are those of the source. The calls are words filed in the database; no cut-off is given here.

T1 sequence (P07355 2-339 limits assumed): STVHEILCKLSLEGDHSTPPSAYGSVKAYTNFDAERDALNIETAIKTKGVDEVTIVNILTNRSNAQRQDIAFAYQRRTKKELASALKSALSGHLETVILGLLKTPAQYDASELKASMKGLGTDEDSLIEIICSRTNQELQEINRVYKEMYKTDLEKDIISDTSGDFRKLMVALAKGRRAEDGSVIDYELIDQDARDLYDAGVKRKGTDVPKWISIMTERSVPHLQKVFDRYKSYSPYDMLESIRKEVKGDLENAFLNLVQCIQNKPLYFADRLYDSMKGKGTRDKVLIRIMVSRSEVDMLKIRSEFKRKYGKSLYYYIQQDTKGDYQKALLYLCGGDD
T1 sequence (P60903 whole entry partner): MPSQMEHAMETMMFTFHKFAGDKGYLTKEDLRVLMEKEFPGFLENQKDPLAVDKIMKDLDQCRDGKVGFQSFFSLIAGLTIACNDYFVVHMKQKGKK

For the molecule `CC(=O)O[C@H]1C(=O)[C@@]2(C)[C@H]([C@H](OC(=O)c3ccccc3)[C@]3(O)C[C@H](OC(=O)[C@H](O)[C@@H](NC(=O)c4ccccc4)c4ccccc4)C(C)=C1C3(C)C)[C@]1(OC(C)=O)CO[C@@H]1C[C@@H]2O`, in the data set on 4T1 [1], the outcome was inactive.

For the molecule `C[C@H]1CCC[C@]2(C)C[C@H]3OC(=O)[C@@H](CN(C)C)[C@H]3[C@@H]3O[C@@]132.O=C(O)/C=C/C(=O)O`, in the data set on 4T1 [2], the inhibition in vivo at 100 mg/kg amounted to 30%. In addition, the result in the data set with 4T1 [3], with 4T1 [4], with 4T1 [5], with 4T1 [6], with 4T1 [7] and in the data set on 4T1 [8] was Active. The outcome in the data set on 4T1 [9] was Active. In addition, the Activity result in [10] is given as “Non-Toxic”.

As usually defined, the IC50 is the concentration needed to halve the response being measured. Regarding `C=C1C(=O)O[C@@H]2C[C@@]3(C)CCC[C@H](C)[C@@]34O[C@H]4[C@H]12`, the 50% inhibitory concentration (IC50) was 16 µM in the data set on MDA-MB-231 [11] and 18.4 µM in the data set with 4T1 [12]. Also, the inhibition entry (in the data set with MDA-MB-231 [13]; with 4T1 [14]; with MDA-MB-231 [17]; in the data set with 4T1 [18]; in data set [23]; in [24]) was “Active” each time. For the same molecule, the inhibition result in the data set with MDA-MB-231 [25] and in the data set with 4T1 [26] was “Active” each time. Also, the inhibition entry in the data set with MDA-MB-231 [15] and with 4T1 [16] was “Dose-Dependent Effect” each time. Besides, the outcome with MDA-MB-231 [19], with 4T1 [20], in the data set on MDA-MB-231 [21] and in the data set with MDA-MB-231 [22] was Active.

For the origin of these results see ChEMBL document CHEMBL5038604, “5α-Epoxyalantolactone Inhibits Metastasis of Triple-Negative Breast Cancer Cells by Covalently Binding a Conserved Cysteine of Annexin A2” (J Med Chem, 2021).
